Like-named read-outs stand apart in the source and are kept apart here.
Legend:
[1] = target: T1, HCV NS5B polymerase (NS5BΔCT21, from HCV-Con 1 isolate, genotype 1b) (Hepatitis C virus genotype 1b, UniProt Q9WMX2); assay: HCV NS5B Polymerase Inhibition Assay; assay type: biochemical
T1 construct: A soluble C-terminal 21-amino acid truncated NS5B enzyme form; polyhistidine (C); made in house; host or cells: Escherichia coli
Outline: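 His-tagged NS5BΔCT21 (30 or 150 nM) with 0.03 μM DCoH75 RNA template, 0.25 mM GAU, 0.1 μM ATP/GTP/UTP, 0.026 μM CTP plus [^33P]-CTP, pH 7.3, 2% DMSO; 2 h at 22° C. Incorporated radioactivity counted after filter capture. IC50 from 10-point 2-fold dilutions (top 200 μM to 1 μM) fitted to Hill equation.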

[2] = test system: HCV replicon cells (replicon RNA level); assay: Cell-Based HCV Replicon Assay; conditions: Hepatitis C virus, 72 h
Outline: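 Replicon cells at 5000/well received 10 serial 2-fold compound dilutions in 0.5% DMSO, 5% FBS, harvested day 3. Replicon RNA quantified by multiplex Taqman RT-PCR on NS5B versus GAPDH; EC50 and EC90 taken at ΔCT = 1 and 3.2 above baseline from sigmoid fits.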

[3] = NS5B polymerase inhibition, [33P]-CTP incorporation, 22° C. for 2 hours, read-out: IC50
[4] = replicon RNA level by real time PCR (Taqman), cells harvested on day 3, read-out: EC50

| Structure (SMILES) | IC50 [1, 3] | EC50 [2, 4] | IC50 [1] | EC50 [2] |
| --- | --- | --- | --- | --- |
| CS(=O)(=O)NC(=O)c1c(-c2ccc[nH]c2=O)c2c3occc3c(F)cc2n1Cc1ccc2[nH]c(N)nc2c1 [Compound 169] | < 25 nM | < 500 nM | – | – |
| CS(=O)(=O)NC(=O)c1c(-c2ccc[nH]c2=O)c2c3occc3c(F)cc2n1Cc1ccc2onc(N)c2c1 [Compound 170] | < 25 nM | < 500 nM | – | – |
| Cc1cccc(Cn2c(C(=O)NS(=O)(=O)C3CC3)c(-c3ccc[nH]c3=O)c3c4occc4c(F)cc32)c1F [Compound 171] | < 25 nM | < 500 nM | – | – |
| C[C@@H]1COc2c1ccc1c2c(-c2ccc[nH]c2=O)c(C(=O)NS(=O)(=O)C2CC2)n1Cc1cc(F)ccc1F [Compound 173] | < 25 nM | < 500 nM | – | – |
| O=C(NS(=O)(=O)C1CC1)c1c(-c2ccc[nH]c2=O)c2c3occc3c(F)cc2n1Cc1cc(=O)[nH]cc1F [Compound 174] | < 25 nM | < 500 nM | – | – |
| CS(=O)(=O)NC(=O)c1c(-c2ccc[nH]c2=O)c2c3occc3c(F)cc2n1Cc1cc(C(N)=O)ccc1F [Compound 175] | < 25 nM | < 500 nM | – | – |
| O=C(NS(=O)(=O)C1CC1)c1c(-c2ccc[nH]c2=O)c2c3occc3c(F)cc2n1Cc1cc(F)ccc1F [Compound 177] | < 25 nM | < 500 nM | – | – |
| O=C(NS(=O)(=O)C1CC1)c1c(-c2ccc[nH]c2=O)c2c3occc3cc(F)c2n1Cc1cc(F)ccc1F [Compound 178] | < 25 nM | < 500 nM | – | – |
| CS(=O)(=O)NC(=O)c1c(-c2ccc[nH]c2=O)c2c3occc3c(F)cc2n1Cc1cc([N+](=O)[O-])ccc1F [Compound 179] | < 25 nM | < 500 nM | – | – |
| CS(=O)(=O)NC(=O)c1c(-c2ccc[nH]c2=O)c2c3occc3ccc2n1Cc1cc2ccccc2nc1Cl [Compound 180] | < 25 nM | < 500 nM | – | – |
| CS(=O)(=O)NC(=O)c1c(-c2ccc[nH]c2=O)c2c3occc3c(F)cc2n1Cc1cc2nc[nH]c2cc1Cl [Compound 182] | < 25 nM | < 500 nM | – | – |
| NC(=O)c1cc(Cn2c(C(=O)NS(=O)(=O)C3CC3)c(-c3ccc[nH]c3=O)c3c4occc4c(F)cc32)cs1 [Compound 183] | < 25 nM | < 500 nM | – | – |
| O=c1[nH]cccc1-c1c(C2=NS(=O)(=O)c3ccccc3N2)n(Cc2ccccc2F)c2cc(F)c3ccoc3c12 [Compound 184] | < 25 nM | < 500 nM | – | – |
| NC(=O)c1cc(Cn2c(C(=O)NS(=O)(=O)C3CC3)c(-c3ccc[nH]c3=O)c3c4c(c(F)cc32)CCO4)cs1 [Compound 185] | < 25 nM | < 500 nM | – | – |
| CC(C)S(=O)(=O)NC(=O)c1c(-c2ccc[nH]c2=O)c2c3occc3c(F)cc2n1Cc1csc(C(N)=O)c1 [Compound 186] | < 25 nM | < 500 nM | – | – |
| CC(C)S(=O)(=O)NC(=O)c1c(-c2ccc[nH]c2=O)c2c3c(c(F)cc2n1Cc1csc(C(N)=O)c1)CCO3 [Compound 188] | < 25 nM | < 500 nM | – | – |
| O=C(NS(=O)(=O)C1CC1)c1c(-c2ccc[nH]c2=O)c2c3occc3c(F)cc2n1Cc1ccc2[nH]c(=O)[nH]c2c1 [Compound 190] | < 25 nM | < 500 nM | – | – |
| COC(=O)c1ccc(F)c(Cn2c(C(=O)NS(=O)(=O)C3CC3)c(-c3ccc[nH]c3=O)c3c4occc4ccc32)c1 [Compound 192] | < 25 nM | < 500 nM | – | – |
| CS(=O)(=O)NC(=O)c1c(-c2ccc[nH]c2=O)c2c3occc3c(F)cc2n1Cc1cc(Cl)nc2ccccc12 [Compound 193] | < 25 nM | 500 to 1500 nM | – | – |
| CS(=O)(=O)NC(=O)c1c(-c2ccc[nH]c2=O)c2c3occc3c(F)cc2n1Cc1cc2ccccc2nc1Cl [Compound 194] | < 25 nM | < 500 nM | – | – |
| NC(=O)c1ccc(F)c(Cn2c(C(=O)NS(=O)(=O)C3CC3)c(-c3ccc[nH]c3=O)c3c4occc4c(F)cc32)c1 [Compound 195] | < 25 nM | < 500 nM | – | – |
| CS(=O)(=O)NC(=O)c1c(-c2ccc[nH]c2=O)c2c3c(c(F)cc2n1Cc1cc2ccccc2nc1Cl)CCO3 [Compound 196] | < 25 nM | < 500 nM | – | – |
| NC(=O)c1cnc(F)c(Cn2c(C(=O)NS(=O)(=O)C3CC3)c(-c3ccc[nH]c3=O)c3c4occc4c(F)cc32)c1 [Compound 197] | < 25 nM | < 500 nM | – | – |
| O=C(NS(=O)(=O)C1CC1)c1c(-c2ccc[nH]c2=O)c2c3occc3c(F)cc2n1Cc1cc([N+](=O)[O-])ccc1F [Compound 198] | < 25 nM | < 500 nM | – | – |
| CC(C)S(=O)(=O)NC(=O)c1c(-c2ccc[nH]c2=O)c2c3occc3c(F)cc2n1Cc1cc(C(N)=O)ccc1F [Compound 199] | < 25 nM | < 500 nM | – | – |

| Structure (SMILES) | IC50 [1, 3] | EC50 [2, 4] | IC50 [1] | EC50 [2] |
| --- | --- | --- | --- | --- |
| NC(=O)c1cnc(F)c(Cn2c(C(=O)NS(=O)(=O)C3CC3)c(-c3ccc[nH]c3=O)c3c4c(c(F)cc32)CCO4)c1 [Compound 200] | < 25 nM | < 500 nM | – | – |
| O=C(NS(=O)(=O)C1CC1)c1c(-c2ccc[nH]c2=O)c2c3occc3ccc2n1Cc1cc2ccccc2nc1Cl [Compound 201] | < 25 nM | < 500 nM | – | – |
| Nc1ccccc1S(=O)(=O)NC(=O)c1c(-c2ccc[nH]c2=O)c2c3occc3c(F)cc2n1Cc1ccccc1F [Compound 202] | < 25 nM | < 500 nM | – | – |
| CN(C)S(=O)(=O)NC(=O)c1c(-c2ccc[nH]c2=O)c2c3occc3ccc2n1Cc1cc2ccccc2nc1Cl [Compound 204] | < 25 nM | < 500 nM | – | – |
| O=C(NS(=O)(=O)C1CC1)c1c(-c2ccc[nH]c2=O)c2c3occc3c(F)cc2n1Cc1cc2nc[nH]c2cc1Cl [Compound 205] | < 25 nM | < 500 nM | – | – |
| CS(=O)(=O)NC(=O)c1c(-c2ccc[nH]c2=O)c2c3occc3c(F)cc2n1Cc1cc(C(=O)NC2CC2)ccc1F [Compound 206] | < 25 nM | 500 to 1500 nM | – | – |
| O=C(NS(=O)(=O)C1CC1)c1c(-c2ccc[nH]c2=O)c2c3occc3c(F)cc2n1Cc1cc(C(O)CO)ccc1F (stereo not shown) [Compound 207] | < 25 nM | < 500 nM | – | – |
| CS(=O)(=O)NC(=O)c1c(-c2ccc[nH]c2=O)c2c3occc3c(F)cc2n1Cc1ccc2[nH]c(C(F)(F)F)nc2c1 [Compound 208] | < 25 nM | < 500 nM | – | – |
| O=C(NS(=O)(=O)C1CC1)c1c(-c2ccc[nH]c2=O)c2c3ncsc3ccc2n1Cc1cc2ccccc2nc1Cl [Compound 209] | < 25 nM | < 500 nM | – | – |
| O=C(NS(=O)(=O)C1CC1)c1c(-c2ccc[nH]c2=O)c2c3occc3c(F)cc2n1Cc1cc(Cl)nc2ccccc12 [Compound 210] | < 25 nM | 500 to 1500 nM | – | – |
| O=C(NS(=O)(=O)C1CC1)c1c(-c2ccc[nH]c2=O)c2c3occc3c(F)cc2n1Cc1cc2ccccc2nc1Cl [Compound 211] | < 25 nM | < 500 nM | – | – |
| O=C(NS(=O)(=O)C1CC1)c1c(-c2ccc[nH]c2=O)c2c3occc3c(F)cc2n1Cc1cc2c(=O)[nH]cnc2cc1F [Compound 212] | – | < 500 nM | < 25 nM | – |
| CCCS(=O)(=O)NC(=O)c1c(-c2ccc[nH]c2=O)c2c3occc3c(F)cc2n1Cc1cc2ccccc2nc1Cl [Compound 213] | < 25 nM | < 500 nM | – | – |
| CN(C)S(=O)(=O)NC(=O)c1c(-c2ccc[nH]c2=O)c2c3occc3c(F)cc2n1Cc1cc2ccccc2nc1Cl [Compound 215] | < 25 nM | < 500 nM | – | – |
| CC(C)S(=O)(=O)NC(=O)c1c(-c2ccc[nH]c2=O)c2c3c(c(F)cc2n1Cc1cc2ccccc2nc1Cl)CCO3 [Compound 216] | < 25 nM | < 500 nM | – | – |
| CS(=O)(=O)NC(=O)c1c(-c2ccc[nH]c2=O)c2c3occc3c(F)cc2n1Cc1cc2cccc(Br)c2o1 [Compound 218] | < 25 nM | > 1500 nM | – | – |
| CC(C)(C)C(=O)OCn1cccc(-c2c(C(=O)O)n(Cc3cc4ccccc4nc3Cl)c3cc(F)c4ccoc4c23)c1=O [Compound 219] | > 100 nM | < 500 nM | – | – |
| O=C(NC1CC1)c1ccc(F)c(Cn2c(C(=O)NS(=O)(=O)C3CC3)c(-c3ccc[nH]c3=O)c3c4occc4c(F)cc32)c1 [Compound 221] | < 25 nM | > 1500 nM | – | – |
| O=C(NS(=O)(=O)C1CC1)c1c(-c2ccc[nH]c2=O)c2c3occc3c(F)cc2n1Cc1ccc2[nH]c(C(F)(F)F)nc2c1 [Compound 222] | < 25 nM | < 500 nM | – | – |
| Nc1ccccc1S(=O)(=O)NC(=O)c1c(-c2ccc[nH]c2=O)c2c3occc3c(F)cc2n1Cc1cc2ccccc2nc1Cl [Compound 223] | < 25 nM | < 500 nM | – | – |
| O=C(NS(=O)(=O)C1CC1)c1ccc(F)c(Cn2c(C(=O)NS(=O)(=O)C3CC3)c(-c3ccc[nH]c3=O)c3c4occc4c(F)cc32)c1 [Compound 225] | < 25 nM | 500 to 1500 nM | – | – |
| COc1cc(Cn2c(C(=O)OCOC(=O)C(C)(C)C)c(-c3cccn(COC(=O)C(C)(C)C)c3=O)c3c4occc4c(F)cc32)c(F)cn1 [Compound 226] | > 100 nM | < 500 nM | – | – |
| CC(C)(C)OC(=O)N(C(=O)OC(C)(C)C)c1cc(Cn2c(C(=O)NS(=O)(=O)C3CC3)c(-c3ccc[nH]c3=O)c3c4occc4c(F)cc32)c(F)cn1 [Compound 227] | > 100 nM | < 500 nM | – | – |
| CC(C)(C)C(=O)OCOC(=O)c1c(-c2cccn(COC(=O)C(C)(C)C)c2=O)c2c3occc3c(F)cc2n1Cc1cc(=O)n(COC(=O)C(C)(C)C)cc1F [Compound 228] | – | < 500 nM | > 100 nM | – |
| CC1(C)COc2c1ccc1c2c(-c2ccc[nH]c2=O)c(C(=O)O)n1Cc1cc2ccccc2nc1Cl [Compound 231] | < 25 nM | – | – | < 500 nM |

Source: patent US8557848B2, “4,5-ring annulated indole derivatives for treating or preventing of HCV and related viral infections” (Merck Sharp & Dohme Corp., priority 2006, dated 2013)
